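Growth conditions: 96-well plates. Treatment: test compound, 48 hours, 5 concentrations. Analysis: linear interpolation between bracketing concentrations; unreached endpoints set to highest concentration. GI50: concentration for 50% inhibition of growth.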 Calls of active or inactive are those of the source. No stated cut-off is given here; in the data, active = GI50 up to about 1.1 µM and inactive = higher.
Assays:
Test in all cases: NCI-60 cell line screen, 48 h
UACC-62 = test system: UACC-62
786-0 = test system: 786-0
HOP-62 = test system: HOP-62
SW-620 = test system: SW-620
HT-29 = test system: HT-29
HCT-15 = test system: HCT-15
MDA-N = test system: MDA-N
RPMI-8226 = test system: RPMI-8226
MDA-MB-435 = test system: MDA-MB-435
NCI-H226 = test system: NCI-H226
TK-10 = test system: TK-10
ACHN = test system: ACHN
LOX IMVI = test system: LOX IMVI
OVCAR-3 = test system: OVCAR-3
MOLT-4 = test system: MOLT-4
UO-31 = test system: UO-31
OVCAR-4 = test system: OVCAR-4
UACC-257 = test system: UACC-257
EKVX = test system: EKVX
HCC 2998 = test system: HCC 2998

Structure (SMILES) | GI50 (UACC-62) | GI50 (786-0) | GI50 (HOP-62) | GI50 (SW-620) | GI50 (HT-29) | GI50 (HCT-15) [µM] | GI50 (MDA-N) | GI50 (RPMI-8226) | GI50 (MDA-MB-435) | GI50 (NCI-H226) | GI50 (TK-10) | GI50 (ACHN) | GI50 (LOX IMVI) | GI50 (OVCAR-3) | GI50 (MOLT-4) | GI50 (UO-31) | GI50 (OVCAR-4) | GI50 (UACC-257) | GI50 (EKVX) | GI50 (HCC 2998)
CC(C)[C@H](NC(=O)[C@H](N)Cc1ccc(N(CCCl)CCCl)cc1)C(=O)O | > 100 µM (inactive) | > 100 µM (inactive) | > 100 µM (inactive) | > 100 µM (inactive) | > 100 µM (inactive) | > 100 | > 100 µM (inactive) | > 100 µM (inactive) | > 100 µM (inactive) | > 100 µM (inactive) | > 100 µM (inactive) | > 100 µM (inactive) | > 100 µM (inactive) | > 100 µM (inactive) | 29.3 µM (inactive) | > 100 µM (inactive) | > 100 µM (inactive) | > 100 µM (inactive) | > 100 µM (inactive) | > 100 µM (inactive)
[N-]=[N+]=NCC1OCC(O)C(OCc2ccccc2)C1OCc1ccccc1 (stereo not given) | 31.9 µM (inactive) | 81.5 µM (inactive) | > 100 µM (inactive) | > 100 µM (inactive) | 36.3 µM (inactive) | 61 | > 100 µM (inactive) | > 100 µM (inactive) | > 100 µM (inactive) | 55 µM (inactive) | > 100 µM (inactive) | > 100 µM (inactive) | > 100 µM (inactive) | > 100 µM (inactive) | 37.1 µM (inactive) | 65.2 µM (inactive) | > 100 µM (inactive) | 66.8 µM (inactive) | 48.4 µM (inactive) | 72.8 µM (inactive)
O=[N+]([O-])c1ccc2c(Nc3ccccc3-c3ccccc3Nc3c4ccccc4nc4cc([N+](=O)[O-])ccc34)c3ccccc3nc2c1 | 3.16 µM (inactive) | 1.93 µM (inactive) | 9.33 µM (inactive) | 1.69 µM (inactive) | 4.14 µM (inactive) | 3.77 | 1.17 µM (inactive) | 1.69 µM (inactive) | 1.34 µM (inactive) | 4.11 µM (inactive) | 4.46 µM (inactive) | 3.17 µM (inactive) | 9.57 µM (inactive) | 3.18 µM (inactive) | 4.01 µM (inactive) | 3.26 µM (inactive) | 10 µM (inactive) | 8.05 µM (inactive) | 11.8 µM (inactive) | 3.98 µM (inactive)
O=Cc1ccc2c(c1)CC1(C2)Cc2ccc(C=O)cc2C1 | 6.76 µM (inactive) | 7.45 µM (inactive) | 14.7 µM (inactive) | 16.1 µM (inactive) | 24.5 µM (inactive) | 7.03 | 2.45 µM (inactive) | 0.274 µM (active) | 2.62 µM (inactive) | 22.8 µM (inactive) | 8.81 µM (inactive) | 24.4 µM (inactive) | 6.07 µM (inactive) | 13.9 µM (inactive) | 2.77 µM (inactive) | 11.9 µM (inactive) | 12.4 µM (inactive) | 18.8 µM (inactive) | 28.2 µM (inactive) | 35.8 µM (inactive)
C=CCOC(=O)/C(=C\c1ccc(OC)c(OC)c1)c1ccc(OC)c(OC)c1 | 38.5 µM (inactive) | 71.3 µM (inactive) | > 100 µM (inactive) | 54.1 µM (inactive) | 28.1 µM (inactive) | > 100 | 60.7 µM (inactive) | 13.4 µM (inactive) | 56 µM (inactive) | > 100 µM (inactive) | 61.2 µM (inactive) | 56.2 µM (inactive) | > 10 µM (inactive) | > 100 µM (inactive) | 15.6 µM (inactive) | 20.7 µM (inactive) | > 10 µM (inactive) | 57.5 µM (inactive) | 88.5 µM (inactive) | > 100 µM (inactive)
CCCC(=O)[O-].[Na+] [SODIUM BUTYRATE] | 1650 µM (inactive) | 10600 µM (inactive) | 7210 µM (inactive) | 2310 µM (inactive) | 4000 µM (inactive) | 10600 | 3580 µM (inactive) | 243 µM (inactive) | 3470 µM (inactive) | 6250 µM (inactive) | 719 µM (inactive) | 4470 µM (inactive) | 3520 µM (inactive) | 9910 µM (inactive) | 3730 µM (inactive) | 2520 µM (inactive) | 18700 µM (inactive) | 1000 µM (inactive) | 18700 µM (inactive) | 400 µM (inactive)
Nc1nc2c(c(-c3cccc(Cl)c3)n1)COC/C2=C\c1cccc(Cl)c1 | > 100 µM (inactive) | 15.6 µM (inactive) | > 100 µM (inactive) | > 100 µM (inactive) | > 100 µM (inactive) | > 100 | > 100 µM (inactive) | > 100 µM (inactive) | > 100 µM (inactive) | > 100 µM (inactive) | 41.8 µM (inactive) | > 100 µM (inactive) | > 100 µM (inactive) | > 100 µM (inactive) | > 100 µM (inactive) | 25 µM (inactive) | > 100 µM (inactive) | 47.2 µM (inactive) | > 100 µM (inactive) | 56.8 µM (inactive)
CC(C)N(CCCNc1c2ccccc2nc2cccc([N+](=O)[O-])c12)C(C)C | 0.0358 µM (active) | < 0.0179 µM (active) | < 0.0191 µM (active) | < 0.01 µM (active) | < 0.01 µM (active) | 0.0191 | 0.0131 µM (active) | < 0.01 µM (active) | < 0.0125 µM (active) | 0.0481 µM (active) | < 0.0205 µM (active) | < 0.0126 µM (active) | < 0.0206 µM (active) | < 0.023 µM (active) | < 0.0134 µM (active) | < 0.0224 µM (active) | 0.0246 µM (active) | < 0.0231 µM (active) | < 0.015 µM (active) | < 0.01 µM (active)
Sc1nnc(-c2ccccc2Nc2ccccc2-c2nnc(S)n2-c2ccccc2)n1-c1ccccc1 | 58.3 µM (inactive) | 45 µM (inactive) | 58.5 µM (inactive) | 26.9 µM (inactive) | 35.5 µM (inactive) | 34.3 | 32.1 µM (inactive) | 20 µM (inactive) | 22.9 µM (inactive) | 29.7 µM (inactive) | 52.8 µM (inactive) | 38.3 µM (inactive) | 42.5 µM (inactive) | 56.6 µM (inactive) | 27.2 µM (inactive) | 44.6 µM (inactive) | 40.4 µM (inactive) | 44.3 µM (inactive) | 32.4 µM (inactive) | 36.6 µM (inactive)
c1ccc(-c2nc3ccccc3n3nnnc23)cc1 | > 100 µM (inactive) | 57.1 µM (inactive) | 63.5 µM (inactive) | > 100 µM (inactive) | > 100 µM (inactive) | > 100 | > 100 µM (inactive) | > 100 µM (inactive) | > 100 µM (inactive) | > 100 µM (inactive) | > 100 µM (inactive) | > 100 µM (inactive) | > 100 µM (inactive) | > 100 µM (inactive) | > 100 µM (inactive) | 0.424 µM (active) | > 100 µM (inactive) | > 100 µM (inactive) | 11.5 µM (inactive) | > 100 µM (inactive)
